According to US8119614B2, “Substitution derivatives of N6-benzyladenosine, methods of their preparation, their use for preparation of drugs, cosmetic preparations and growth regulators, pharmaceutical preparations, cosmetic preparations and growth regulators containing these compounds” (Ustav Experimentalni Botaniky Akademie Ved Ceske Republiky, priority 2002, dated 2012):

Assays:
HOS = assay: In vitro cytotoxic activity, Calcein AM assay, HOS; format: cell-based; conditions: 72 hours
[1] = test system: human erythroleukaemia K562; assay: In vitro cytotoxic activity, Calcein AM assay, K-562; format: cell-based; conditions: 72 hours, read-out: IC 50 K-562
Text: (§1) One of the parameters used, as the basis for cytotoxicity assays, is the metabolic activity of viable cells. For example, a microtiter assay, which uses the Calcein AM, is now widely used to quantitate cell proliferation and cytotoxicity. For instance, this assay is used in drug screening programs and in chemosensitivity testing. Because only metabolically active cells cleave Calcein AM, these assays detect viable cells exclusively. The quantity of reduced Calcein AM corresponds to the number of vital cells in the culture.
(§2) Human T-lymphoblastic leukemia cell line CEM; promyelocytic HL-60 and monocytic U937 leukemias; breast carcinoma cell lines MCF-7; cervical carcinoma cells HELA; mouse fibroblasts NIH3T3; human erythroleukaemia K562 and human malignant melanoma cells G361 were used for routine screening of compounds. The cells were maintained in Nunc/Corning 80 cm^2 plastic tissue culture flasks and cultured in cell culture medium (DMEM with 5 g/l glucose, 2 mM glutamine, 100 U/ml penicillin, 100 μg/ml streptomycin, 10% fetal calf serum and sodium bicarbonate).
(§3) The cell suspensions that were prepared and diluted according to the particular cell type and the expected target cell density (10^4 cells per well based on cell growth characteristics) were added by pipette (80 μl) into 96/well microtiter plates. Inoculates were allowed a pre-incubation period of 24 hours at 37° C. and 5% CO2 for stabilisation. Four-fold dilutions of the intended test concentration were added at time zero in 20 μl aliquots to the microtiter plate wells. Usually, test compound was evaluated at six 4-fold dilutions. In routine testing, the highest well concentration was 166.7 μM, but it can be the matter of change dependent on the agent. All drug concentrations were examined in duplicates. Incubations of cells with the test compounds lasted for 72 hours at 37° C., in 5% CO2 atmosphere and 100% humidity. At the end of incubation period, the cells were assayed by using the Calcein AM. Ten microliters of the stock solution were pipetted into each well and incubated further for 1 hours. Fluorescence (FD) was measured with the Labsystem FIA Reader Fluoroscan Ascent (UK). The tumour cell survival (GI50) was calculated using the following equitation: GI50=(FDdrug exposed well/mean FDcontrol wells)×100%. The GI50 value, the drug concentration lethal to 50% of the tumour cells, was calculated from the obtained dose response curves (FIG. 3).

[2] = test system: breast carcinoma cell lines MCF-7; assay: In vitro cytotoxic activity, Calcein AM assay, MCF7; format: cell-based, human; conditions: 72 hours, read-out: IC 50 MCF7
Text: as §1, §2, §3

mouse fibroblasts NIH3T3 = assay: In vitro cytotoxic activity, Calcein AM assay, NIH-3T3; format: cell-based; conditions: 72 hours, read-out: IC 50 NIH-3T3
Text: as §1, §2, §3

[3] = test system: Human T-lymphoblastic leukemia cell line CEM; assay: In vitro cytotoxic activity, Calcein AM assay, CEM; format: cell-based; conditions: 72 hours
Text: as §1, §2, §3

promyelocytic HL-60 = assay: In vitro cytotoxic activity, Calcein AM assay, HL60; format: cell-based, human; conditions: 72 hours, read-out: IC 50 HL60
Text: as §1, §2, §3

[4] = test system: Amaranthus caudatus cotyledon/hypocotyl explants; assay: Amaranthus bioassay (betacyanin content); format: in vivo; conditions: for Concentration with highest activity: 48 h dark; for Activity (%) [10^−5 mol · l^−1 BAP = 100%]: at concentration with highest activity
Method: Standard Amaranthus bioassay was performed with several modifications. The seeds of Amaranthus caudatus var. atropurpurea were surface-sterilised in 10% N-chlorobenzenesulfonamide (w/v) for 10 min and washed 5 times in deionized water. They were placed in 15 cm Petri dishes containing paper tissues saturated with deionized water. After 72 h of cultivation at 25° C. in darkness, the roots of the seedlings were cut off. The explants, consisting of two cotyledons and hypocotyls, were placed in 5 cm Petri dishes on two layers of filter paper soaked in 1 ml of incubation medium containing 10 μmol NA2HPO4-KH2PO4, pH 6.8, 5 μmol tyrosine and the cytokinin to be tested. There were 20 explants per dish. The procedure was carried out under a green safe light in a darkroom. After a 48 h of incubation at 25° C. in darkness, betacyanin was extracted by freezing the explants in 4 ml […] acetic acid. The concentration of betacyanin was determined by comparing the absorbance at 537 nm and 620 nm as follows: ΔA=[…]-[…]. From the obtained data, the concentration with highest activity was selected for each compound tested. Relative activity of the compound at this concentration was calculated (Tab. 12). […] The values shown in table 8 are means of five replicates and the entire test was repeated twice. The cytokinins to be tested were dissolved in dimethylsulfoxide (DMSO) and the solution brought up to 10^-3M with distilled water. This stock was further diluted in the respective media used for the biotest to concentrations ranging from 10^-8M to 10^-4M. […] From the data obtained (FIG. 14) the maximum effective concentration of the tested compound was calculated as well as its relative effectiveness at this concentration (Table 12). […]

[5] = test system: Triticum aestivum cv. Hereward; assay: Senescence inhibition on winter wheat leaf segments (chlorophyll retention); format: in vivo; conditions: for Concentration with highest activity: chlorophyll retention in excised wheat leaf tips, 96 h dark; for Activity (%) [10^−4 mol · l^−1 BAP = 100%]: chlorophyll retention, at concentration with highest activity
Method: Seeds of winter wheat, Triticum aestivum cv. Hereward, were washed under running water for 24 hours and then sown on vermiculite soaked with Knop's solution. They were placed in the grown chamber at 15° C. with a 16/8 h light period at 50 μmol·m^−2·s^−1. After 7 days, the first leaf was fully developed and the second leaf had started to grow. A tip section of the first leaf, approximately 35 mm long, was removed from 5 seedlings and trimmed slightly to a combined weight of 100 mg. The basal ends of the five leaf tips were placed in the wells of a microtiter polystyrene plate containing 150 μl of a cytokinin solution each. The entire plate was inserted into a plastic box lined with paper tissues soaked in distilled water to prevent leaf sections from drying out. After a 96 h incubation in the dark at 25° C., the leaves were removed and chlorophyll extracted by heating at 80° C. for 10 min in 5 ml of 80% ethanol (v/v). The sample volume was then restored to 5 ml by the addition of 80% ethanol (v/v). The absorbency of the extract was recorded at 665 nm. In addition, chlorophyll extracts from fresh leaves and leaf tips incubated in deionised water were measured. From the obtained data, the concentration with highest activity was selected for each compound tested. Relative activity of the compound at this concentration was calculated (Tab. 10). The activity obtained for 10^−4 M 6-benzylaminopurine (BAP) was postulated as 100%. The values shown are means of five replicates and the whole experiment was repeated twice. The cytokinins to be tested were dissolved in dimethylsulfoxide (DMSO) and the solution brought up to 10^−3M with distilled water. This stock was further diluted in distilled water to concentrations ranging from 10^−8M to 10^−4M.

Nc1nc(NCc2cccc(Cl)c2)c2ncn([C@@H]3O[C@H](CO)[C@@H](O)[C@H]3O)c2n1 [R2 = NH2,3-chlorobenzylamino]
IC50 (HOS): > 167 µM | IC50 [1]: 43 µM | IC50 [2]: > 167 µM | IC50 (mouse fibroblasts NIH3T3): > 167 µM | IC50 [3]: 10.2 µM | IC50 (promyelocytic HL-60): 5.8 µM

O=[N+]([O-])c1cccc(CNc2ncnc3c2ncn3[C@@H]2O[C@H](CO)[C@@H](O)[C@H]2O)c1 [3-nitrobenzylamino, 6-(3-nitrobenzylamino)purine riboside]
Concentration with highest activity [4]: 10^−4 mol · l^−1 | Activity (%) [10^−5 mol · l^−1 BAP = 100%] [4]: 66 ± 7%

OCC1OC(n2cnc3c(NCc4ccccc4F)nc(Cl)nc32)C(O)C1O (centres unmarked) [R2 = Cl, 2-fluorobenzylamino]
IC50 (HOS): > 167 µM | IC50 [1]: 30 µM | IC50 [2]: > 167 µM | IC50 [3]: 4.2 µM | IC50 (promyelocytic HL-60): 2.5 µM

O=[N+]([O-])c1ccc(CNc2ncnc3c2ncn3[C@@H]2O[C@H](CO)[C@@H](O)[C@H]2O)cc1 [4-nitrobenzylamino, 6-(4-nitrobenzylamino)purine riboside]
Concentration with highest activity [4]: 10^−4 mol · l^−1 | Activity (%) [10^−5 mol · l^−1 BAP = 100%] [4]: 25 ± 3%

OC[C@H]1O[C@@H](n2cnc3c(NCc4cccc(Cl)c4)nc(Cl)nc32)[C@H](O)[C@@H]1O [R2 = Cl, 3-chlorobenzylamino]
IC50 (HOS): > 167 µM | IC50 [1]: 28 µM | IC50 [2]: > 167 µM | IC50 (mouse fibroblasts NIH3T3): > 167 µM | IC50 [3]: 1.1 µM | IC50 (promyelocytic HL-60): 0.6 µM

CSc1nc(NCc2ccccc2F)c2ncn([C@@H]3O[C@H](CO)[C@@H](O)[C@H]3O)c2n1 [R2 = SCH3,2-fluorobenzylamino]
IC50 (HOS): > 167 µM | IC50 [1]: 42 µM | IC50 [2]: > 167 µM | IC50 [3]: 9.7 µM | IC50 (promyelocytic HL-60): 11.4 µM

OC[C@H]1O[C@@H](n2cnc3c(NCc4ccc(F)c(F)c4F)ncnc32)[C@H](O)[C@@H]1O [2,3,4-trifluorobenzylamino, 6-(2,3,4-trifluorobenzylamino)purine riboside]
IC50 (HOS): > 167 µM | IC50 [1]: > 167 µM | IC50 [2]: > 167 µM | IC50 (mouse fibroblasts NIH3T3): > 167 µM | IC50 [3]: 58.2 µM | IC50 (promyelocytic HL-60): 13 µM | Concentration with highest activity [5]: 10^−4 mol · l^−1 | Activity (%) [10^−4 mol · l^−1 BAP = 100%] [5]: 144 ± 12%

Nc1nc(NCc2ccccc2Cl)c2ncn(C3OC(CO)C(O)C3O)c2n1 (centres unmarked) [R2 = NH2,2-chlorobenzylamino]
IC50 (HOS): > 167 µM | IC50 [1]: 78 µM | IC50 [2]: > 167 µM | IC50 (mouse fibroblasts NIH3T3): > 167 µM | IC50 [3]: 24.7 µM | IC50 (promyelocytic HL-60): 10.3 µM

COc1ccc(CNc2ncnc3c2ncn3[C@@H]2O[C@H](CO)[C@@H](O)[C@H]2O)c(OC)c1 [2,4-dimethoxybenzylamino, 6-(2,4-dimethoxybenzylamino)purine riboside]
IC50 (HOS): > 167 µM | IC50 [1]: > 167 µM | IC50 [2]: > 167 µM | IC50 (mouse fibroblasts NIH3T3): > 167 µM | IC50 [3]: > 167 µM | IC50 (promyelocytic HL-60): 39 µM | Concentration with highest activity [4]: 10^−5 mol · l^−1 | Activity (%) [10^−5 mol · l^−1 BAP = 100%] [4]: 3 ± 3%

Nc1nc(NCc2ccc(F)cc2)c2ncn([C@@H]3O[C@H](CO)[C@@H](O)[C@H]3O)c2n1 [R2 = NH2,4-fluorobenzylamino]
IC50 (HOS): 43 µM | IC50 [1]: 13 µM | IC50 [2]: 25 µM | IC50 (mouse fibroblasts NIH3T3): > 167 µM | IC50 [3]: 12.1 µM | IC50 (promyelocytic HL-60): 2.9 µM

COc1cc(CNc2ncnc3c2ncn3[C@@H]2O[C@H](CO)[C@@H](O)[C@H]2O)cc(OC)c1 [3,5-dimethoxyxybenzylamino, 6-(3,5-dimethoxybenzylamino)purine riboside]
IC50 (HOS): > 167 µM | IC50 [1]: > 167 µM | IC50 [2]: > 167 µM | IC50 (mouse fibroblasts NIH3T3): > 167 µM | IC50 (promyelocytic HL-60): 18.8 µM

Nc1nc(NCc2ccccc2F)c2ncn([C@@H]3O[C@H](CO)[C@@H](O)[C@H]3O)c2n1 [R2 = NH2,2-fluorobenzylamino]
IC50 (HOS): > 167 µM | IC50 [1]: 45 µM | IC50 [2]: > 167 µM | IC50 [3]: 14.5 µM | IC50 (promyelocytic HL-60): 8.7 µM

OCC1OC(n2cnc3c(NCc4ccccc4Cl)nc(Cl)nc32)C(O)C1O (centres unmarked) [R2 = Cl, 2-chlorobenzylamino]
IC50 (HOS): > 167 µM | IC50 [1]: 61 µM | IC50 [2]: > 167 µM | IC50 (mouse fibroblasts NIH3T3): > 167 µM | IC50 [3]: 8.5 µM | IC50 (promyelocytic HL-60): 1.2 µM

CSc1nc(NCc2ccccc2Cl)c2ncn([C@@H]3O[C@H](CO)[C@@H](O)[C@H]3O)c2n1 [R2 = SCH3,2-chlorobenzylamino]
IC50 (HOS): > 167 µM | IC50 [1]: 78 µM | IC50 [2]: > 167 µM | IC50 (mouse fibroblasts NIH3T3): > 167 µM | IC50 [3]: 14.6 µM | IC50 (promyelocytic HL-60): 7.4 µM

COc1ccc(CNc2ncnc3c2ncn3[C@@H]2O[C@H](CO)[C@@H](O)[C@H]2O)cc1OC [3,4-dimethoxybenzylamino, 6-(3,4-dimethoxybenzylamino)purine riboside]
Concentration with highest activity [5]: 10^−4 mol · l^−1 | Activity (%) [10^−4 mol · l^−1 BAP = 100%] [5]: 47 ± 6% | Concentration with highest activity [4]: 10^−4 mol · l^−1 | Activity (%) [10^−5 mol · l^−1 BAP = 100%] [4]: 2 ± 1%

OC[C@H]1O[C@@H](n2cnc3c(NCc4ccc(F)cc4)nc(Cl)nc32)[C@H](O)[C@@H]1O [R2 = Cl, 4-fluorobenzylamino]
IC50 (HOS): 19 µM | IC50 [1]: 5.8 µM | IC50 [2]: 12 µM | IC50 (mouse fibroblasts NIH3T3): > 167 µM | IC50 [3]: 1.5 µM | IC50 (promyelocytic HL-60): 0.7 µM

CSc1nc(NCc2cccc(Cl)c2)c2ncn([C@@H]3O[C@H](CO)[C@@H](O)[C@H]3O)c2n1 [R2 = SCH3,3-chlorobenzylamino]
IC50 (HOS): > 167 µM | IC50 [1]: 35 µM | IC50 [2]: > 167 µM | IC50 (mouse fibroblasts NIH3T3): > 167 µM | IC50 [3]: 13.2 µM | IC50 (promyelocytic HL-60): 6.1 µM

OCC1OC(n2cnc3c(NCc4ccc(Cl)cc4)nc(Cl)nc32)C(O)C1O (centres unmarked) [R2 = Cl, 4-chlorobenzylamino]
IC50 (HOS): > 167 µM | IC50 [1]: 15 µM | IC50 [2]: > 167 µM | IC50 (mouse fibroblasts NIH3T3): > 167 µM | IC50 [3]: 5.8 µM | IC50 (promyelocytic HL-60): 5 µM
